From PubChem BioAssay (NCI)
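Results reflect a 48-hour exposure of cells in 96-well plates to compound at five concentrations. At the TGI there is no net growth.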

Assays:
Test in all cases: growth of human tumour cells (NCI), 48 h
[1] = test system: 786-0 renal
[2] = test system: A549 NSCLC
[3] = test system: ACHN renal
[4] = test system: BT-549 breast
[5] = test system: CAKI-1 renal
[6] = test system: CCRF-CEM leukemia
[7] = test system: COLO 205 colon
[8] = test system: DU-145 prostate
[9] = test system: EKVX NSCLC
[10] = test system: HCC-2998 colon
[11] = test system: HCT-116 colon
[12] = test system: HCT-15 colon
[13] = test system: HL-60(TB) leukemia
[14] = test system: HOP-62 NSCLC
[15] = test system: HOP-92 NSCLC
[16] = test system: HS 578T breast
[17] = test system: HT29 colon
[18] = test system: IGROV1 ovarian
[19] = test system: K-562 leukemia
[20] = test system: KM12 colon
[21] = test system: LOX IMVI melanoma
[22] = test system: M14 melanoma
[23] = test system: MALME-3M melanoma
[24] = test system: MCF7 breast
[25] = test system: MDA-MB-231 breast
[26] = test system: MDA-MB-435
[27] = test system: MDA-N
[28] = test system: MOLT-4 leukemia
[29] = test system: NCI-H226 lung
[30] = test system: NCI-H23 lung
[31] = test system: NCI-H522 lung
[32] = test system: OVCAR-3 ovarian
[33] = test system: OVCAR-4 ovarian
[34] = test system: OVCAR-5 ovarian
[35] = test system: OVCAR-8 ovarian
[36] = test system: PC-3 prostate
[37] = test system: RPMI-8226 leukemia
[38] = test system: RXF 393 renal
[39] = test system: SF-268 CNS
[40] = test system: SF-295 CNS
[41] = test system: SF-539 CNS
[42] = test system: SK-MEL-2 melanoma
[43] = test system: SK-MEL-28 melanoma
[44] = test system: SK-MEL-5 melanoma
[45] = test system: SN12C renal
[46] = test system: SNB-19 CNS
[47] = test system: SNB-75 CNS
[48] = test system: SR leukemia
[49] = test system: SW-620 colon
[50] = test system: TK-10 renal
[51] = test system: U251 CNS
[52] = test system: UACC-257 melanoma
[53] = test system: UO-31 renal

Measured: TGI

CC(=O)OCCOCn1c2c(c(=O)[nH]c1=O)CCC2
> 100 µM: [1] | [2] | [3] | [4] | [5] | [6] | [7] | [8] | [9] | [10] | [11] | [12] | [13] | [14] | [15] | [16] | [17] | [18] | [19] | [20] | [21] | [22] | [23] | [24] | [25] | [26] | [27] | [28] | [29] | [30] | [31] | [32] | [33] | [34] | [35] | [36] | [37] | [38] | [39] | [40] | [41] | [42] | [43] | [44] | [45] | [46] | [47] | [48] | [49] | [50] | [51] | [52] | [53]
